In patent publication US20260335277A1, “CHLOROTONIL DERIVATIVES” (priority 2023, published 2026):
Converted amounts (≈) assume the structure as drawn. Where two headings read alike, the source gives them in different places.

What was measured:
E. faecalis ATCC-29212 = assay: MIC testing (broth microdilution, EUCAST); type: cell-based; settings: Enterococcus faecalis, ATCC29212, E. faecalis ATCC-29212
Protocol: (§1) Minimal inhibitory concentration (MIC) of the compounds in the present invention was determined using broth microdilution performed according to EUCAST guidelines (ISO20776-1:2019). S. aureus ATCC29213 and E. faecalis ATCC29212 served as quality control strains.

[1] = system: E. faecium DSM-17050 (vancomycin-resistant, VRE); assay: MIC testing (broth microdilution, EUCAST); type: cell-based; settings: Enterococcus faecium
Protocol: as §1

E. faecium DSM-20477 = assay: MIC testing (broth microdilution, EUCAST); type: cell-based; settings: Enterococcus faecium, DSM20477, E. faecium DSM-20477
Protocol: as §1

[2] = system: S. aureus N315 (methicillin-resistant, MRSA); assay: MIC testing (broth microdilution, EUCAST); type: cell-based; settings: Staphylococcus aureus, MRSA
Protocol: as §1

S. aureus Newman = assay: MIC testing (broth microdilution, EUCAST); type: cell-based
Protocol: as §1

S. epidermidis DSM-28765 = assay: MIC testing (broth microdilution, EUCAST); type: cell-based; settings: Staphylococcus epidermidis, DSM28765, S. epidermidis DSM-28765; read-out: MIC S. epiderm.
Protocol: as §1

[3] = system: mature gametocytes (stages IV and V); assay: Activity against mature gametocytes (stage IV-V), bioluminescence assay; type: cell-based, P. falciparum
Protocol: Activity against gametocytes was determined using an in vitro bioluminescence assay as described previously (doi.org/10.1371/journal.pone.0035019).

E. faecium = assay: MIC 50/90 profiling in multidrug-resistant clinical isolates; type: cell-based
Protocol: as §1
(§2) Activity of dehalogenil against multidrug-resistant clinical isolates of S. aureus (n=100) and Enterococcus spp. […] Compared to the standard of care (linezolid, daptomycin and tigecyclin), dehalogenil MIC90 was lowered in both pathogens by 20-40-fold with unimodal distribution indicating no pre-existing resistances.

[4] = system: clinical isolates of S. aureus; assay: as above; type: cell-based
Protocol: as §1, §2

zebrafish larvae = assay: Toxicity in zebrafish larvae (MTC / IC50); type: in vivo
Protocol: For toxicity screening, zebrafish larvae were exposed three days post fertilization and monitored for 48 h until five days post fertilization. All malformations and pathophysiological phenotypes were noted and used to determine the inhibitory concentration (IC50) of the respective derivative against zebrafish larvae. The selectivity index (SI) was then calculated using the IC50 and the MIC of either S. aureus or P. falciparum 3D7.

Metabolic stability = type: in vitro ADME; settings: for microsomal CLint: liver microsomes, read-out: microsomal clearance
Protocol: (§3) Complementing the toxicity profiling, ADME properties of the lead dehalogenil were determined. This had not been possible for the first generation frontrunner ChB1-Epo2 or the natural product ChA because of their poor limit of detection. […] Across species (mouse, rat, human), metabolic stability is high while plasma stability is moderate. Besides, no hemolysis and no inhibition of the metabolically important enzyme CYP3A4 was observed by both dehalogenil and ChA. Plasma protein binding (PPB) is >99.4% in all species.

Plasma stability = type: in vitro ADME; settings: for half-life: plasma, read-out: plasma stability t1/2 (converted)
Protocol: as §3

[5] = Plasma protein binding (PPB); type: in vitro ADME, rat
Protocol: as §3

Hemolysis = type: cell-based
Protocol: as §3

Inhibition of CYP3A4 = type: in vitro ADME; settings: cyp3a4
Protocol: as §3

CYP3A4 = assay: Inhibition of CYP3A4; type: in vitro ADME
Protocol: as §3

[6] = In vivo PK, peroral vs. intravenous administration, peroral bioavailability; design: species or system mouse; settings: for half-life: read-out: t1/2z (converted)
Text: According to the current invention, intravenous injection in vivo was possible for the first time using a vehicle consisting of 50% ClearSol™ in phosphate buffered saline (PBS) pH 7.4.

[7] = In vivo PK after subcutaneous application (50% ClearSol/PBS pH 7.4); design: species or system mouse; settings: for Cz / tz / AUC(0-t) / Cmax / Tmax: n = 3; for AUC(0-t) / Cmax / Tmax: mouse, in vivo
Protocol: Dehalogenil was further applied subcutaneously at 5, 10 and 25 mg/kg in 50% ClearSol™/PBS pH 7.4.

[8] = Activity compared with chlorotonil A (general statement); settings: vs chlorotonil A
[9] = literature product; cited from earlier work
[10] = Enterococcus faecium, E. faecium (n = 98)
[11] = Staphylococcus aureus, S. aureus clinical isolates (n = 100)
[12] = mouse, in vivo, mice, 7.5 mg/kg iv, mean (n = 3)
[13] = mouse, in vivo, mice, 10 mg/kg po, mean (n = 3)

CC1=CC(C)C2C(C=CC3C(C)C=CC=CC(C)OC(=O)C(C)C(=O)CC(=O)C32)C1 (stereo not shown) [dehalogenil]
MIC (E. faecalis ATCC-29212): 0.1 µg/mL (≈ 0.244 µM) | MIC [1]: 0.1 µg/mL (≈ 0.244 µM) | MIC (E. faecium DSM-20477): 0.025 µg/mL (≈ 0.0609 µM) | MIC [2]: 0.05 µg/mL (≈ 0.122 µM) | MIC S. aureus (S. aureus Newman): 0.05 µg/mL (≈ 0.122 µM) | MIC (S. epidermidis DSM-28765): 0.2 µg/mL (≈ 0.487 µM) | IC50 [3]: 0.0058 µM | MIC (E. faecium; Enterococcus faecium, read-out: MIC range): 0.00625 to 0.2 µg/mL (≈ 0.0152 to 0.487 µM) | MIC50 (E. faecium; [10]): 0.025 µg/mL (≈ 0.0609 µM) | MIC90 (E. faecium; [10]): 0.1 µg/mL (≈ 0.244 µM) | MIC90 lowered compared to standard of care (E. faecium; vs linezolid, daptomycin and tigecyclin, Enterococcus spp. (n=98)): 20-40 fold | MIC [4, 11]: 0.025 to 0.4 µg/mL (≈ 0.0609 to 0.974 µM) | MIC50 [4, 11]: 0.1 µg/mL (≈ 0.244 µM) | MIC90 [4, 11]: 0.2 µg/mL (≈ 0.487 µM) | MIC90 lowered compared to standard of care ([4]; vs linezolid, daptomycin and tigecyclin, S. aureus (n=100)): 20-40 fold | toxic effects in zebrafish (zebrafish larvae; 5-10 μg/mL): no toxic effects | IC50 in zebrafish larvae (zebrafish larvae; exposed 3 days post fertilization, monitored 48 h): 27.4 µM | Selectivity Index S. aureus (zebrafish larvae; zebrafish IC50 / MIC S. aureus Newman): 224.8 | Selectivity Index P. falc 3D7 (zebrafish larvae; zebrafish IC50 vs P. falciparum 3D7): 5479.6 | metabolic stability (Metabolic stability; human): high | microsomal CLint (Metabolic stability; human): 6.4 µL/min/mg | metabolic stability (Metabolic stability; mouse): high | microsomal CLint (Metabolic stability; mouse): 6.4 µL/min/mg | metabolic stability (Metabolic stability; rat): high | microsomal CLint (Metabolic stability; rat): 14 µL/min/mg | plasma stability (Plasma stability; human): moderate | half-life (Plasma stability; human): 1.4 h | plasma stability (Plasma stability; mouse): moderate | half-life (Plasma stability; mouse): 1.5 h | plasma stability (Plasma stability; rat): moderate | half-life (Plasma stability; rat): 1.2 h | fraction unbound ([5]; plasma, all species: rat): < 0.006 | plasma protein binding ([5]; rat): >99.4% | hemolysis (Hemolysis): no hemolysis | hemolysis at 20 µM (Hemolysis; 20 μM, human blood cells, read-out: haemolysis of human blood cells): 1.4% | IC50 (Inhibition of CYP3A4): 16.4 µM | inhibition of CYP3A4 (CYP3A4): no inhibition | bioavailability ([6]; mice, 7.5 mg/kg iv (reference)): 100% | tz ([6]; mice, 7.5 mg/kg iv, mean (n = 3)): 24 h | tz ([6]; mice, 10 mg/kg po, mean (n = 3)): 24 h | AUC(0-inf) [6, 12]: 12100 ng·h/mL | AUC(0-t) [6, 12]: 9580 ng·h/mL | C0 [6, 12]: 872 ng/mL | half-life [6, 12]: 10.8 h | bioavailability ([6]; mouse, in vivo, mice, 10 mg/kg po vs 7.5 mg/kg iv, read-out: Bioavailability): 9.5% | AUC(0-inf) [6, 13]: 1540 ng·h/mL | AUC(0-t) [6, 13]: 1400 ng·h/mL | Cmax [6, 13]: 101 ng/mL | Tmax [6, 13]: 3 h | half-life [6, 13]: 6.7 h | bioavailability ([6]; mouse, in vivo, rodents, oral, read-out: oral bioavailability): ~10% | Cz ([7]; mice, 5 mg/kg sc): 109.0 ng/mL | tz ([7]; mice, 5 mg/kg sc): 24.0 h | Cz ([7]; mice, 10 mg/kg sc): 257.0 ng/mL | tz ([7]; mice, 10 mg/kg sc): 24.0 h | Plasma levels, subcutaneous vs intravenous ([7]; mice, 25 mg/kg sc vs 7.5 mg/kg iv): comparable to 7.5 mg/kg dehalogenil applied intravenously | Cz ([7]; mice, 25 mg/kg sc): 595 ng/mL | tz ([7]; mice, 25 mg/kg sc): 24.0 h | Dose response after subcutaneous application ([7]; mice, 5, 10 and 25 mg/kg sc): suitable dose response | AUC(0-t) ([7]; mice, 5 mg/kg sc): 2690 ng·h/mL | Cmax ([7]; mice, 5 mg/kg sc): 125 ng/mL | Tmax ([7]; mice, 5 mg/kg sc): 7 h | AUC(0-t) ([7]; mice, 10 mg/kg sc): 8090 ng·h/mL | Cmax ([7]; mice, 10 mg/kg sc): 488 ng/mL | Tmax ([7]; mice, 10 mg/kg sc): 3 h | AUC(0-t) ([7]; mice, 25 mg/kg sc): 18500 ng·h/mL | Cmax ([7]; mice, 25 mg/kg sc): 1200 ng/mL | Tmax ([7]; mice, 25 mg/kg sc): 3 h | activity compared to chlorotonil A [8]: activity similar to chlorotonil A | activity described in the literature [9]: inactive
